Reference: US8512723B2, “Antimicrobial compositions and methods” (3M Innovative Properties Company, priority 2003, dated 2013)

Legend:
[1] = system: 30 Methicillin Susceptible Stapyloccus aureus (MSSA) isolates; experiment: Emergence of Resistance Test; type: cell-based, Staphylococcus aureus
Protocol: (§1) Overnight cultures of each of 30 MRSA isolates and 30 Methicillin Susceptible Stapyloccus aureus (MSSA) isolates were grown in Mueller-Hinton broth (MHB) at 35° C. in room air. Bacteria in the broth were concentrated by centrifugation for 15 minutes at 2,200 revolustions per minute (rpm). The spent broth was decanted and replaced with fresh MHB containing 0.5 μL per mL of each of three antimicrobial compositions (Examples 31(IPA), 32(IPA), and 33(IPA)) or 0.125 μg/mL of mupirocin lithium salt (Sigma Aldrich, Milwaukee, Wis.). The cultures were returned to the incubator for 18 hours. Following incubation, each culture was again centrifuged and the bacterial pellet was divided into two aliquots. One aliquot was resuspended in MHB containing fresh antimicrobial compositions at twice the previous concentrations and returned to the incubator for continued exposure.
(§2) The second aliquot was screened for MRSA and MSSA by incubation with 2 mL of MHB containing 4 μg/mL of mupirocin or 1,200 μg/mL of Examples 31(IPA) or 32(IPA) or 33 (IPA). The resistance screens were incubated overnight at 35° C. in room air. After incubation, each screen was subcultured to fresh MHB and incubated for 4 to 6 hours. Minimum inhibitory concentration (MIC) testing was performed on logarithmically growing bacteria recovered from the screen. This procedure was repeated for 8 days. After 8 days of serial exposure, each bacterial pellet was resuspended in bland MHB and incubated overnight. The MIC of each antimicrobial composition or mupirocin was determined as the MIC90 (range) before and daily during serial passage.
(§3) The IPA modified antimicrobial compositions were tested using the Emergence of Resistance Test. The results are shown at baseline (T0), after eight days (T8) and the ratio of T0 to T8 in Table 9d.

30 MRSA isolates = experiment: Emergence of Resistance Test; type: cell-based, Staphylococcus aureus
Protocol: as §1, §2, §3

[2] = system: MRSA #561 (clinical isolate of methicillin resistant staphylococcus); experiment: Murine MRSA nasal colonization model; type: in vivo, mice; settings: 10 μL per nare, three times daily for two days; nares cultured three days after treatment
Protocol: 1999 Infect and Immunity 67(10) 5001-5006. Prior to evaluation of the active compositions the lowest number of S. aureus required to establish nasal colonization in 70% of mice detectable 5 days after challenge and persisting at least 10 days after challenge was determined. This was using an innoculum of 10^8 cfu/nare. Mice (239 described as 25 g to 30 g Hsd:ICR) were challenged intranasally with 10^8 MRSA #561 (a clinical isolate of methicillin resistant staphylococcus obtained from Mayo Clinic, Rochester, Minn.) and arbitrarily assigned to one of five treatment regimens: mupirocin ointment, bland ointment, antimicrobial compositions of Examples 31, 32, and 33. The bland ointment consisted of petrolatum (89%), glycerin (10%) and DOSS (1%). Mice received either no treatment (none) or treatment with 10 μL per nare of warmed (42° C.) ointment (one of five) to each nare, three times daily for two days Three days after treatment, both anterior nares were swabbed and cultured for MRSA. Colonies appearing to be S. aureus were confirmed with a latex agglutination test. S. aureus was detected in 160 colonization cultures from 239 mice challenged. These mice continued to be studied. The results of the treatments are listed in Table 9e as the number of animals with no MRSA detected after treatment (successful), the percent of the animals treated successfully, the number of animals with MRSA (failure), and the percent of animals whose treatment failed.

[3] = MIC90 after eight days (T8) of serial exposure, unit assumed
[4] = MIC90 at baseline (T0), unit assumed

C/C(=C\C(=O)OCCCCCCCCC(=O)O)C[C@@H]1OC[C@H](C[C@@H]2O[C@H]2[C@@H](C)[C@H](C)O)[C@@H](O)[C@H]1O [Mupirocin, mupirocin] was tested, and the MSSA Final (T8) MIC [1, 3] was 128 µg/mL, the MSSA Initial (T0) MIC [1, 4] was 0.25 µg/mL and the “MSSA MIC fold increase (T8/T0)” value ([1]; ratio of MIC at T0 and T8) was 512. For the same compound, the MRSA Final (T8) MIC (30 MRSA isolates; [3]) was 64 µg/mL, the MRSA Initial (T0) MIC (30 MRSA isolates; [4]) was 0.25 µg/mL and the “Increase of the MIC” value (30 MRSA isolates; eight days of serial exposure) was “increased dramatically”. For the same compound, the “Number of Mice with MRSA” value [2] was 19, the “Number of Mice without MRSA” value [2] was 19 and the “Percent Treated Successfully” value [2] was 50%. For the same compound, the “Percent Whose Treatment Failed” value [2] was 50%.
